Consider 20 compounds from patent US20210047304A1, “Bromodomain Inhibitors” (AbbVie Inc., priority 2016, published 2021).

SMILES strings stand for the structures.

For the assay, the target named is BRD4 (BDI_K57-E168) (Homo sapiens, UniProt O60885). The assay can be described thus: TR-FRET bromodomain binding assay, BRD4 BDI. As to the method:
A time-resolved fluorescence resonance energy transfer (TR-FRET) assay was used to determine the affinities of compounds of the Examples listed in Table 1 for each bromodomain of BRD4. […] An Alexa647-labeled BET-inhibitor was used as the fluorescent probe in the assay.
Compound dilution series were prepared in DMSO via an approximately 3-fold serial dilution. Compound dilutions were added directly into white, low-volume assay plates (Perkin Elmer Proxiplate 384 Plus #6008280) using a Labcyte Echo in conjunction with Labcyte Access and Thermo Multidrop CombinL robotics. Compounds were then suspended in eight microliters (μL) of assay buffer (20 mM Sodium Phosphate, pH 6.0, 50 mM NaCl, 1 mM Ethylenediaminetetraacetic acid disodium salt dihydrate, 0.01% Triton X-100, 1 mM DL-Dithiothreitol) containing His-tagged bromodomain, Europium-conjugated anti-His antibody (Invitrogen PV5596) and Alexa-647-conjugated probe.
After a one-hour equilibration at room temperature, TR-FRET ratios were determined using an Envision multilabel plate reader (Ex 340, Em 495/520).
TR-FRET data were normalized to the means of 24 no-compound controls (“high”) and 8 controls containing 1 μM un-labeled probe (“low”). Percent inhibition was plotted as a function of compound concentration and the data were fit with the 4 parameter logistic equation to obtain IC50s. Inhibition constants (Ki) were calculated from the IC50s, probe Kd and probe concentration.
Compound dilution series for Compounds A-E were prepared in DMSO via an approximately 3-fold serial dilution from 0.47 mM to 7.8 nM.
Compound dilutions were added directly into white, low-volume assay plates (Perkin Elmer Proxiplate 384 Plus #6008280) using a Labcyte Echo in conjunction with Labcyte Access and Thermo Multidrop CombinL robotics. Compounds were then suspended in eight microliters (μL) of assay buffer (20 mM Sodium Phosphate, pH 6.0, 50 mM NaCl, 1 mM Ethylenediaminetetraacetic acid disodium salt dihydrate, 0.01% Triton X-100, 1 mM DL-Dithiothreitol) containing His-tagged bromodomain, Europium-conjugated anti-His antibody (Invitrogen PV5596) and Alexa-647-conjugated probe.
TR-FRET data were normalized to the means of 24 no-compound controls (“high”) and 8 controls containing 1 μM un-labeled probe (“low”). Percent inhibition was plotted as a function of compound concentration and the data were fit with the 4 parameter logistic equation to obtain IC50s. Inhibition constants (Ki) were calculated from the IC50s, probe Kd and probe concentration. Typical Z′ values were between 0.65 and 0.75. The minimum significant ratio was determined to evaluate assay reproducibility (Eastwood et al., (2006) J Biomol Screen, 11: 253-261). The MSR was determined to be 2.03 for BDI and 1.93 for BDII, and a moving MSR (last six run MSR overtime) for both BDI and BDII was typically <3.
`C=CCCCC(=O)N[C@H]1CC[C@H](Oc2cc(=O)n(C)cc2-c2cc(C(C)(C)O)ccc2Oc2c(C)cc(F)cc2C)CC1` [Example 36, N-[trans-4-({5-[2-(4-fluoro-2,6-dimethylphenoxy)-5-(2-hydroxypropan-2-yl)phenyl]-1-methyl-2-oxo-1,2-dihydropyridin-4-yl}oxy)cyclohexyl]hex-5-enamide]: the Ki is 5.79 µM.

Compound `Cc1cccc(C)c1Oc1ccc(C(C)(C)O)cc1-c1cn(C)c(=O)cc1NC1CCN(S(C)(=O)=O)C1` (centres unmarked) [Example 12, 5-[2-(2,6-dimethylphenoxy)-5-(2-hydroxypropan-2-yl)phenyl]-4-{[1-(methanesulfonyl)pyrrolidin-3-yl]amino}-1-methylpyridin-2(1H)-one] yielded a Ki of 0.553 µM.

`Cc1ccc(=O)n([C@H]2CC[C@H](Oc3cc(=O)n(C)cc3-c3cc(C(C)(C)O)ccc3Oc3c(C)cc(F)cc3C)CC2)n1` [Example 130, 2-[trans-4-({5-[2-(4-fluoro-2,6-dimethylphenoxy)-5-(2-hydroxypropan-2-yl)phenyl]-1-methyl-2-oxo-1,2-dihydropyridin-4-yl}oxy)cyclohexyl]-6-methylpyridazin-3(2H)-one] registered a Ki of 3.19 µM.

The compound `Cc1cc(F)cc(C)c1Oc1ccc(C(C)(C)O)cc1-c1cn(C)c(=O)cc1O[C@H]1CC[C@H](NC(=O)c2ccccc2C(=O)O)CC1` [Example 45, 2-{[trans-4-({5-[2-(4-fluoro-2,6-dimethylphenoxy)-5-(2-hydroxypropan-2-yl)phenyl]-1-methyl-2-oxo-1,2-dihydropyridin-4-yl}oxy)cyclohexyl]carbamoyl}benzoic acid] returned a Ki of 4.17 µM.

Compound `CC(=O)N[C@H]1CC[C@H](Oc2cc(=O)n(C)cc2-c2cc(C(C)(C)O)ccc2Oc2c(C)cc(C(C)(C)O)cc2C)CC1` [Example 18, N-{trans-4-[(5-{5-(2-hydroxypropan-2-yl)-2-[4-(2-hydroxypropan-2-yl)-2,6-dimethylphenoxy]phenyl}-1-methyl-2-oxo-1,2-dihydropyridin-4-yl)oxy]cyclohexyl}acetamide] showed a Ki of 0.982 µM.

`Cc1cc(F)cc(C)c1Oc1ccc(C(C)(C)O)cc1-c1cn(C)c(=O)cc1O[C@H]1CC[C@H](N2CC(C)(C)C2=O)CC1` [Example 30, 4-{[trans-4-(3,3-dimethyl-2-oxoazetidin-1-yl)cyclohexyl]oxy}-5-[2-(4-fluoro-2,6-dimethylphenoxy)-5-(2-hydroxypropan-2-yl)phenyl]-1-methylpyridin-2(1H)-one] registered a Ki of 3.3 µM.

For the compound `Cc1cc(F)cc(C)c1Oc1ccc(C(C)(C)O)cc1-c1cn(C)c(=O)cc1O[C@H]1CC[C@@H](C(C)(C)O)CC1` [Example 74, 5-[2-(4-fluoro-2,6-dimethylphenoxy)-5-(2-hydroxypropan-2-yl)phenyl]-4-{[cis-4-(2-hydroxypropan-2-yl)cyclohexyl]oxy}-1-methylpyridin-2(1H)-one], the inhibition constant (Ki) is over 13 µM.

On to `Cc1cc(F)cc(C)c1Oc1ccc(C(C)(C)O)cc1-c1cn(C)c(=O)cc1O[C@H]1CC[C@H](NC(=O)N2CCNC2=O)CC1` [Example 123, N-[trans-4-({5-[2-(4-fluoro-2,6-dimethylphenoxy)-5-(2-hydroxypropan-2-yl)phenyl]-1-methyl-2-oxo-1,2-dihydropyridin-4-yl}oxy)cyclohexyl]-2-oxoimidazolidine-1-carboxamide], for which the Ki was over 13 µM.

`Cc1cc(F)cc(C)c1Oc1ccc(C(C)(C)O)cc1-c1cn(C)c(=O)cc1O[C@H]1CC[C@H](C(N)=O)CC1` [Example 102, trans-4-({5-[2-(4-fluoro-2,6-dimethylphenoxy)-5-(2-hydroxypropan-2-yl)phenyl]-1-methyl-2-oxo-1,2-dihydropyridin-4-yl}oxy)cyclohexane-1-carboxamide] yielded a Ki of 4 µM.

With `CC(=O)N[C@H]1CC[C@H](Oc2cc(=O)n(C)cc2-c2cc(C(C)(C)O)cnc2Oc2c(C)cc(F)cc2C)CC1` [Example 1, N-(trans-4-{[2′-(4-fluoro-2,6-dimethylphenoxy)-5′-(2-hydroxypropan-2-yl)-1-methyl-6-oxo[1,6-dihydro[3,3′-bipyridine]]-4-yl]oxy}cyclohexyl)acetamide], the affinity, expressed as Ki, was 1.71 µM.

On to `Cc1cc(F)cc(C)c1Oc1ccc(C(C)(C)O)cc1-c1cn(C)c(=O)cc1O[C@H]1CC[C@H](N2CCC(C)(C)C2=O)CC1` [Example 48, 4-{[trans-4-(3,3-dimethyl-2-oxopyrrolidin-1-yl)cyclohexyl]oxy}-5-[2-(4-fluoro-2,6-dimethylphenoxy)-5-(2-hydroxypropan-2-yl)phenyl]-1-methylpyridin-2(1H)-one], for which the Ki was 1.79 µM.

`Cc1cc(F)cc(C)c1Oc1ccc(C(C)(C)O)cc1-c1cn(C)c(=O)cc1O[C@H]1CC[C@H](N2C(=O)CCC(C)(C)C2=O)CC1` [Example 89, 1-[trans-4-({5-[2-(4-fluoro-2,6-dimethylphenoxy)-5-(2-hydroxypropan-2-yl)phenyl]-1-methyl-2-oxo-1,2-dihydropyridin-4-yl}oxy)cyclohexyl]-3,3-dimethylpiperidine-2,6-dione] gave a Ki of over 13 µM.

Consider `COC(=O)N[C@H]1CC[C@H](Oc2cc(=O)n(C)cc2-c2cc(C(C)(C)O)cnc2Oc2c(C)cc(F)cc2C)CC1` [Example 5, methyl (trans-4-{[2′-(4-fluoro-2,6-dimethylphenoxy)-5′-(2-hydroxypropan-2-yl)-1-methyl-6-oxo[1,6-dihydro[3,3′-bipyridine]]-4-yl]oxy}cyclohexyl)carbamate], for which the affinity corresponds to a Ki of 1.96 µM.

Compound `Cc1cc(F)cc(C)c1Oc1ccc(C(C)(C)O)cc1-c1cn(C)c(=O)cc1O[C@H]1CC[C@H](NC(=O)C(C)(C)N)CC1` [Example 139, N-[trans-4-({5-[2-(4-fluoro-2,6-dimethylphenoxy)-5-(2-hydroxypropan-2-yl)phenyl]-1-methyl-2-oxo-1,2-dihydropyridin-4-yl}oxy)cyclohexyl]-2-methylalaninamide] displayed a Ki of 0.645 µM. This Ki lies about 3-fold lower than the previous one.

`Cc1cc(F)cc(C)c1Oc1ccc(C(C)(C)O)cc1-c1cn(C)c(=O)cc1O[C@H]1CC[C@H](N2C(=O)COC2=O)CC1` [Example 82, 3-[trans-4-({5-[2-(4-fluoro-2,6-dimethylphenoxy)-5-(2-hydroxypropan-2-yl)phenyl]-1-methyl-2-oxo-1,2-dihydropyridin-4-yl}oxy)cyclohexyl]-1,3-oxazolidine-2,4-dione]: affinity was put at a Ki of 1.51 µM.

`Cc1cc(F)cc(C)c1Oc1ccc(C(C)(C)O)cc1-c1cn(C)c(=O)cc1O[C@H]1CC[C@H](NC(=O)C(C)(C)CCO)CC1` [Example 47, N-[trans-4-({5-[2-(4-fluoro-2,6-dimethylphenoxy)-5-(2-hydroxypropan-2-yl)phenyl]-1-methyl-2-oxo-1,2-dihydropyridin-4-yl}oxy)cyclohexyl]-4-hydroxy-2,2-dimethylbutanamide] registered a Ki of 4.02 µM.

Compound `Cc1cc(F)cc(C)c1Oc1ccc(C(C)(C)O)cc1-c1cn(C)c(=O)cc1O[C@H]1CC[C@H](n2ncccc2=O)CC1` [Example 141, 2-[trans-4-({5-[2-(4-fluoro-2,6-dimethylphenoxy)-5-(2-hydroxypropan-2-yl)phenyl]-1-methyl-2-oxo-1,2-dihydropyridin-4-yl}oxy)cyclohexyl]pyridazin-3(2H)-one] had a Ki of 4.09 µM.

`COC(=O)N[C@H]1CC[C@H](Oc2cc(=O)n(C)cc2-c2cc(C(C)(C)O)ccc2Oc2c(C)cc(C(C)(C)O)cc2C)CC1` [Example 20, methyl {trans-4-[(5-{5-(2-hydroxypropan-2-yl)-2-[4-(2-hydroxypropan-2-yl)-2,6-dimethylphenoxy]phenyl}-1-methyl-2-oxo-1,2-dihydropyridin-4-yl)oxy]cyclohexyl}carbamate] displayed a Ki of 1.09 µM. Compared with the last compound, the Ki is about 3.8-fold lower.

`Cc1cc(F)cc(C)c1Oc1ccc(C(C)(C)O)cc1-c1cn(C)c(=O)cc1O[C@H]1CC[C@H](N2CCCN(C)C2=O)CC1` [Example 41, 1-[trans-4-({5-[2-(4-fluoro-2,6-dimethylphenoxy)-5-(2-hydroxypropan-2-yl)phenyl]-1-methyl-2-oxo-1,2-dihydropyridin-4-yl}oxy)cyclohexyl]-3-methyltetrahydropyrimidin-2(1H)-one] gave a Ki of 2.48 µM.

`Cc1cc(F)cc(C)c1Oc1ccc(C(C)(C)O)cc1-c1cn(C)c(=O)cc1NC1CCC(C)(O)CC1` (stereo not drawn) [Example 23, 5-[2-(4-fluoro-2,6-dimethylphenoxy)-5-(2-hydroxypropan-2-yl)phenyl]-4-[(trans-4-hydroxy-4-methylcyclohexyl)amino]-1-methylpyridin-2(1H)-one] gave a Ki of 3.63 µM.
